O=c1[nH]c(=O)n(C2CCCO2)cc1F (centres undefined)
solubility (mole fraction)
Settings	273.15 K	278.15 K	283.15 K	288.15 K	293.15 K	298.15 K	303.15 K	308.15 K	313.15 K
in acetone	0.00932	0.0115	0.014	0.0168	0.0196	0.0233	0.0277	0.0326	0.0388
in ethanol	0.00118	0.00152	0.00198	0.00253	0.00318	0.00402	0.00506	0.00629	0.00767
in ethyl acetate	0.00607	0.00718	0.00837	0.00957	0.0109	0.0122	0.0137	0.0153	0.0175
in isopropanol	0.00086	0.00109	0.00139	0.00179	0.00227	0.00286	0.00358	0.00444	0.00547
in methanol	0.00362	0.00428	0.00495	0.00592	0.00692	0.00802	0.00925	0.0107	0.0126
in n-propanol	0.00112	0.00141	0.00176	0.00223	0.00274	0.00343	0.0042	0.00516	0.00618

Reference: BigSolDB 2.1
